In US20260028326A1, “COMPOUND BASED ON ISOINDOLINE-SUBSTITUTED GLUTARIMIDE BACKBONE AND USE THEREOF” (GLUETACS THERAPEUTICS (SHANGHAI) CO., LTD., priority 2022, published 2026):
“And” between values parts separate entries of the source, which are not always exact repeats. Equal entries are not always repeated.

What was measured:
[1] = biological target: human Cereblon WT GST-tagged protein (Homo sapiens (Human), UniProt Q96SW2); assay: CRBN-binding affinity, HTRF (CEREBLON BINDING kit)
Procedure, shortened: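 HTRF competition readout: compounds compete with a thalidomide-Re conjugate for GST-tagged wild-type human CRBN detected via Eu-labelled anti-GST antibody. Inhibition rate derived relative to protein-free blank wells.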

IKZF1 protein = IKZF1 protein (Homo sapiens (Human), UniProt Q13422+Q96SW2); assay: Western-blot assay of substrate protein degradation in hPBMC, IKZF1; format: cell-based; settings: hPBMC cells, compound 500 nM, 24 hours, Western blot
IKZF3 protein = IKZF3 protein (Homo sapiens (Human), UniProt Q96SW2+Q9UKT9); assay: Western-blot assay of substrate protein degradation in hPBMC, IKZF3; format: cell-based; settings: hPBMC cells, compound 500 nM, 24 hours, Western blot
GSPT1 protein = GSPT1 protein (Homo sapiens (Human), UniProt P15170+Q96SW2); assay: Western-blot assay of substrate protein degradation in hPBMC, GSPT1; format: cell-based; settings: hPBMC cells, compound 500 nM, 24 hours, Western blot
Sequence of GSPT1 protein (P15170 whole entry): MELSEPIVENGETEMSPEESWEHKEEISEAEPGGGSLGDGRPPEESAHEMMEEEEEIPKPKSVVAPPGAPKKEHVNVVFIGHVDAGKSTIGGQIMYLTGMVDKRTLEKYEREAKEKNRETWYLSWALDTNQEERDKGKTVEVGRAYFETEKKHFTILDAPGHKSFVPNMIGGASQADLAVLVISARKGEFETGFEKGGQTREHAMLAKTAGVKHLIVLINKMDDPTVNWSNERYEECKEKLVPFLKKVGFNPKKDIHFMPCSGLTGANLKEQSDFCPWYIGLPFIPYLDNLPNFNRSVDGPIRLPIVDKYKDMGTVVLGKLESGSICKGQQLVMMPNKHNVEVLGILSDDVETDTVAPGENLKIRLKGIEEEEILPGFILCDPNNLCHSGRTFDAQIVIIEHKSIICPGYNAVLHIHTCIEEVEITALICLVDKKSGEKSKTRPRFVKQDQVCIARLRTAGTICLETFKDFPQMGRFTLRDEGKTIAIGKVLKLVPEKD
Sequence of GSPT1 protein (Q96SW2 whole entry): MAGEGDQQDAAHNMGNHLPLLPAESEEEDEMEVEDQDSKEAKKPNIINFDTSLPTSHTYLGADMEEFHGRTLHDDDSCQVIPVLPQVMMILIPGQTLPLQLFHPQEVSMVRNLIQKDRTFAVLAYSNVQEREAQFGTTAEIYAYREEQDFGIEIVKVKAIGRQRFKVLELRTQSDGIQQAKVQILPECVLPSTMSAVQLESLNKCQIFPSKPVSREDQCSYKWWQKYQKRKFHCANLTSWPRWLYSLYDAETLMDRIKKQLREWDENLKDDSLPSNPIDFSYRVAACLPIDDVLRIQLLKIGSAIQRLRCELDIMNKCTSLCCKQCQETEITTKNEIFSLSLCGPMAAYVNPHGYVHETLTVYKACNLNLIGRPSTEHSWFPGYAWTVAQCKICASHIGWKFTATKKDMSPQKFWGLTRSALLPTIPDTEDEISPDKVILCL
Sequence of GSPT1 protein (Q16531 whole entry partner): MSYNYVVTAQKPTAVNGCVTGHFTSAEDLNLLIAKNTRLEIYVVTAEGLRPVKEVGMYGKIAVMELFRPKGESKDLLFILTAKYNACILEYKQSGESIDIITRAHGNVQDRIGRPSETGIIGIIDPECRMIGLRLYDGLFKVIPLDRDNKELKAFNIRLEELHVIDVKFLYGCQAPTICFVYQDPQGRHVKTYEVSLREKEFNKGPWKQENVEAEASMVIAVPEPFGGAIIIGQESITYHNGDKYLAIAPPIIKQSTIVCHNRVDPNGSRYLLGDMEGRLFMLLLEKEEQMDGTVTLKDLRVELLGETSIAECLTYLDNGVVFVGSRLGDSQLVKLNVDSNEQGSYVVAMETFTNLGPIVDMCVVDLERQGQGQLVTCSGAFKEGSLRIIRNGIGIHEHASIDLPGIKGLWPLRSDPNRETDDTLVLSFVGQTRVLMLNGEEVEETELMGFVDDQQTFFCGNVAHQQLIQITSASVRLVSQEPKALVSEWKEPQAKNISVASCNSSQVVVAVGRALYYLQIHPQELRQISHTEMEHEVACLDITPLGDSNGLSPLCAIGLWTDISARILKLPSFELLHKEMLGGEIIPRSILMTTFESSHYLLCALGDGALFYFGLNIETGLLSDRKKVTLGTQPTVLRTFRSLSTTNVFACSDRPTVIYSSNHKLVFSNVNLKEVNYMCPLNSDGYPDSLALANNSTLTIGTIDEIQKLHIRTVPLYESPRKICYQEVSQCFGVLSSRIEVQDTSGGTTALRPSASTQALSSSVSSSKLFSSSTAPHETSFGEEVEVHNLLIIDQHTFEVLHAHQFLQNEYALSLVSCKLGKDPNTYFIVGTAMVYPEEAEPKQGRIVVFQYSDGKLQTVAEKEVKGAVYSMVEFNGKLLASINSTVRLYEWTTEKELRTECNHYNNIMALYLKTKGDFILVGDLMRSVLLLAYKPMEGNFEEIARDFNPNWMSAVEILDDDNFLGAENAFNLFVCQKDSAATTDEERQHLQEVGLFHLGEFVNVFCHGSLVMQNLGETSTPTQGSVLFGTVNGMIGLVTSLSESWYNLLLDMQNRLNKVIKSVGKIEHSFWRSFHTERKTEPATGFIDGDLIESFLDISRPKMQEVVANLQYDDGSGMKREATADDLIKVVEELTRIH

Sequence of human Cereblon WT GST-tagged protein (Q96SW2 whole entry): as the sequence (Q96SW2 whole entry) above
Sequence of IKZF3 protein (Q9UKT9 whole entry): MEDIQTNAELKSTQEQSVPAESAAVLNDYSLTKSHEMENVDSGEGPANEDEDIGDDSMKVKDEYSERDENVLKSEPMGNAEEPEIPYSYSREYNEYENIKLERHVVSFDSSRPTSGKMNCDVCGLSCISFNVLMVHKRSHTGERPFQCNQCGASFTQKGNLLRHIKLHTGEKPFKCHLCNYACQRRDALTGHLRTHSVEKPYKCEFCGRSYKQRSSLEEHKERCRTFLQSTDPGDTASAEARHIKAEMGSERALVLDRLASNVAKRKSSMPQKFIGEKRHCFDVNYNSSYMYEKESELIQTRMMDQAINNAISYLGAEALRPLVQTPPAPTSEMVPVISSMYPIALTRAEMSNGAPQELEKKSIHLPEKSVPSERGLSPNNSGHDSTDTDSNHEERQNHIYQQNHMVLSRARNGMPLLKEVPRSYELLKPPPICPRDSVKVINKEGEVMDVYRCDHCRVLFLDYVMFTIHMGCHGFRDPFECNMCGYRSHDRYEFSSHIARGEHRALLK
Sequence of IKZF3 protein (Q96SW2 whole entry): as the sequence (Q96SW2 whole entry) above
Sequence of IKZF3 protein (Q16531 whole entry partner): as the sequence (Q16531 whole entry partner) above
Sequence of IKZF1 protein (Q13422 whole entry): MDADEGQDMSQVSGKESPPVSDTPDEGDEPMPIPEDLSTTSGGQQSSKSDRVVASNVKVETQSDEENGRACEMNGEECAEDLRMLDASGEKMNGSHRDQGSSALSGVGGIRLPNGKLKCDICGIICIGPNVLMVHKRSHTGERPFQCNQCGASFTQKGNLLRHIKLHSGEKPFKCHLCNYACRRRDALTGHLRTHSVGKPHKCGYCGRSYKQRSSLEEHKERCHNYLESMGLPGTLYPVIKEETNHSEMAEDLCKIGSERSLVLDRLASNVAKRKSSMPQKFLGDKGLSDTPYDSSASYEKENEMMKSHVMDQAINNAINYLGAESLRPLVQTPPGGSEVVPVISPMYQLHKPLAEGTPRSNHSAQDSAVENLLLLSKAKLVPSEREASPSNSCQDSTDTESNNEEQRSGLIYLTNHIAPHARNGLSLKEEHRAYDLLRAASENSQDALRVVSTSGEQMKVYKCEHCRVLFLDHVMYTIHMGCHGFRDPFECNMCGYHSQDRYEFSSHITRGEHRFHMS
Sequence of IKZF1 protein (Q96SW2 whole entry): as the sequence (Q96SW2 whole entry) above
Sequence of IKZF1 protein (Q16531 whole entry partner): as the sequence (Q16531 whole entry partner) above

Structure (SMILES) | IC50 [1] | residual substrate protein level, IKZF1 (IKZF1 protein) | residual substrate protein level, IKZF3 (IKZF3 protein) | residual substrate protein level, GSPT1 (GSPT1 protein)
CC1(C)CCC(CN2CC3CC(C2)N3Cc2ccc3c(c2F)CN(C2CCC(=O)NC2=O)C3=O)=C(c2ccc(Cl)cc2)C1 (centres unmarked) [GT-03493, 3-(5-((3-((4′-chloro-5,5-dimethyl-3,4,5,6-tetrahydro-[1,1′-biphenyl]-2-yl)methyl)-3,6-diazabicyclo[3.1.1]heptan-6-yl)methyl)-4-fluoro-1-oxoisoindolin-2-yl)piperidine-2,6-dione] | 750 nM | A (A represents a residual substrate protein level of <50%) | A (A represents a residual substrate protein level of <50%) | A (A represents a residual substrate protein level of <50%)
O=C1CCC(N2Cc3cc(C(=O)N4C5CC4CN(C(=O)C4=C(c6ccc(F)cc6)CCCC4)C5)ccc3C2=O)C(=O)N1 (centres unmarked) [GT-05449, 3-(5-(3-(4′-fluoro-3,4,5,6-tetrahydro-[1,1′-biphenyl]-2-carbonyl)-3,6-diazabicyclo[3.1.1]heptane-6-carbonyl)-1-oxoisoindolin-2-yl)piperidine-2,6-dione] | 1690 nM | B (B represents a residual substrate protein level of >50%) | B (B represents a residual substrate protein level of >50%) | A (A represents a residual substrate protein level of <50%)
CC1(C)CCC(CN2CC3CCC2CN3Cc2ccc3c(c2)CN(C2CCC(=O)NC2=O)C3=O)=C(c2ccc(Cl)cc2)C1 (centres unmarked) [GT-04167, 3-(5-((5-((4′-chloro-5,5-dimethyl-3,4,5,6-tetrahydro-[1,1′-biphenyl]-2-yl)methyl)-2,5-diazabicyclo[2.2.2]octan-2-yl)methyl)-1-oxoisoindolin-2-yl)piperidine-2,6-dione] | 660 nM | B (B represents a residual substrate protein level of >50%) | B (B represents a residual substrate protein level of >50%) | B (B represents a residual substrate protein level of >50%)
CC1(C)CCC(C(=O)N2C3CC2CN(Cc2ccc4c(c2)CN(C2CCC(=O)NC2=O)C4=O)C3)=C(c2ccc(F)cc2)C1 (centres unmarked) [GT-05515, 3-(5-((6-(4′-fluoro-5,5-dimethyl-3,4,5,6-tetrahydro-[1,1′-biphenyl]-2-carbonyl)-3,6-diazabicyclo[3.1.1]heptan-3-yl)methyl)-1-oxoisoindolin-2-yl)piperidine-2,6-dione] | 1010 nM | B (B represents a residual substrate protein level of >50%) | B (B represents a residual substrate protein level of >50%) | A (A represents a residual substrate protein level of <50%)
CC1(C)CCC(CN2CC3CCC(C2)N3Cc2ccc3c(c2F)CN(C2CCC(=O)NC2=O)C3=O)=C(c2ccc(Cl)cc2)C1 (centres unmarked) [GT-03890, 3-(5-((3-((4′-chloro-5,5-dimethyl-3,4,5,6-tetrahydro-[1,1′-biphenyl]-2-yl)methyl)-3,8-diazabicyclo[3.2.1]octan-8-yl)methyl)-4-fluoro-1-oxoisoindolin-2-yl)piperidine-2,6-dione] | 510 nM | B (B represents a residual substrate protein level of >50%) | A (A represents a residual substrate protein level of <50%) | A (A represents a residual substrate protein level of <50%)
O=C1CCC(N2Cc3cc(CN4C5CC4CN(Cc4ccccc4-c4ccc(Cl)cc4)C5)ccc3C2=O)C(=O)N1 (centres unmarked) [GT-05607, 3-(5-((3-((4′-chloro-[1,1′-biphenyl]-2-yl)methyl)-3,6-diazabicyclo[3.1.1]heptan-6-yl)methyl)-1-oxoisoindolin-2-yl)piperidine-2,6-dione] | 1150 nM and 880 nM | B (B represents a residual substrate protein level of >50%) | B (B represents a residual substrate protein level of >50%) | A (A represents a residual substrate protein level of <50%)
O=C1CCC(N2Cc3cc(C(=O)N4CCN(Cc5ccccc5-c5ccc(Cl)cc5)CC4)ccc3C2=O)C(=O)N1 (centres unmarked) [GT-05455, 3-(5-(4-((4′-chloro-[1,1′-biphenyl]-2-yl)methyl)piperazine-1-carbonyl)-1-oxoisoindolin-2-yl)piperidine-2,6-dione] | 1070 nM | B (B represents a residual substrate protein level of >50%) | B (B represents a residual substrate protein level of >50%) | A (A represents a residual substrate protein level of <50%)
O=C1CCC(N2Cc3cc(CN4CCN(Cc5cccc(-c6ccc[nH]6)c5)CC4)ccc3C2=O)C(=O)N1 (centres unmarked) [GT-05733, 3-(5-((4-(3-(1H-pyrrol-2-yl)benzyl)piperazin-1-yl)methyl)-1-oxoisoindolin-2-yl)piperidine-2,6-dione] | 210 nM | B (B represents a residual substrate protein level of >50%) | A (A represents a residual substrate protein level of <50%) | A (A represents a residual substrate protein level of <50%)
CC1(C)CCC(C(=O)N2CC(O)(C(O)c3ccc4c(c3)CN(C3CCC(=O)NC3=O)C4=O)C2)=C(c2ccc(F)cc2)C1 (centres unmarked) [GT-05490, 3-(5-((1-(4′-fluoro-5,5-dimethyl-3,4,5,6-tetrahydro-[1,1′-biphenyl]-2-carbonyl)-3-hydroxyazetidin-3-yl)(hydroxy)methyl)-1-oxoisoindolin-2-yl)piperidine-2,6-dione] | 580 nM | A (A represents a residual substrate protein level of <50%) | B (B represents a residual substrate protein level of >50%) | B (B represents a residual substrate protein level of >50%)
O=C1CCC(N2Cc3cc(CN4C5CCC4CN(Cc4ccccc4-c4ccc(Cl)cc4)C5)ccc3C2=O)C(=O)N1 (centres unmarked) [GT-05710, 3-(5-((3-((4′-chloro-[1,1′-biphenyl]-2-yl)methyl)-3,8-diazabicyclo[3.2.1]octan-8-yl)methyl)-1-oxoisoindolin-2-yl)piperidine-2,6-dione] | 1100 nM | B (B represents a residual substrate protein level of >50%) | A (A represents a residual substrate protein level of <50%) | A (A represents a residual substrate protein level of <50%)
CC1(C)CCC(CN2CCN(Cc3ccc4c(c3)C(=O)N(C3CCC(=O)NC3=O)C4=O)CC2)=C(c2ccc(F)cc2)C1 (centres unmarked) [GT-05395, 2-(2,6-dioxopiperidin-3-yl)-5-((4-((4′-fluoro-5,5-dimethyl-3,4,5,6-tetrahydro-[1,1′-biphenyl]-2-yl)methyl)piperazin-1-yl)methyl)isoindoline-1,3-dione] | 1610 nM | B (B represents a residual substrate protein level of >50%) | A (A represents a residual substrate protein level of <50%) | A (A represents a residual substrate protein level of <50%)
